Source: patent US20150315188A1, “COMPOUNDS AND METHODS FOR TREATMENT OF HYPERTENSION” (MEDIVATION TECHNOLOGIES, INC., priority 2012, published 2015)

Tests used:
[1] = target: T1, Human adrenergic α1B receptor (Homo sapiens, UniProt P35368); test: Radioligand binding, adrenergic α1B (Protocol Group B); set-up: purchased Milipore (Millipore); settings: for Ki: estimated Ki; for inhibition at 0.1 µM / Percentage inhibition of ligand binding, Adrenergic α1B (0.1 μM): 0.1 μM compound; for inhibition at 0.1 µM: read-out: Percentage inhibition of ligand binding, Adrenergic α1B (0.1 μM); for inhibition at 0.3 µM: read-out: Percentage inhibition of ligand binding, Adrenergic α1B (0.3 μM); for inhibition at 0.0032 µM: 3.2 nM compound, read-out: Percentage inhibition of ligand binding, Adrenergic α1B, 3.2 nM; for inhibition at 0.32 µM: 0.32 μM compound, read-out: Percentage inhibition of ligand binding, Adrenergic α1B, 0.32 μM; for inhibition at 1 µM: 1 μM compound, read-out: Percentage inhibition of ligand binding, Adrenergic α1B, 1 μM
T1 sequence (P35368 1-520): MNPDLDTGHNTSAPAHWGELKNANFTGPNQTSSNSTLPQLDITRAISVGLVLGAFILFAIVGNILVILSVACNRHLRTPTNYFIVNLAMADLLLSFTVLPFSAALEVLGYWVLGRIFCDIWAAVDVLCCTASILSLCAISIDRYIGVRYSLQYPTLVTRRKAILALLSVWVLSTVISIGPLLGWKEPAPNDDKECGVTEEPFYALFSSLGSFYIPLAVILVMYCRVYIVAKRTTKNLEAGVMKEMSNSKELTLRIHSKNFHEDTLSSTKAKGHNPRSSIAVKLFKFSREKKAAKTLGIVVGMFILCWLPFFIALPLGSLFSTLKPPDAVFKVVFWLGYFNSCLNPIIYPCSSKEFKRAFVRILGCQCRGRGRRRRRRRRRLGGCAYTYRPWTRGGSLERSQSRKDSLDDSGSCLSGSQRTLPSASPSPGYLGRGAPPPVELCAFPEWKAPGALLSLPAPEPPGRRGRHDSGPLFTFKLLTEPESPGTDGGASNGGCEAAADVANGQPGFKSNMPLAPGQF
Summary of the method: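 Recombinant human α1B membranes incubated with test compound and 0.3 nM [3H]prazosin, 60 min at 25 °C, in 50 mM Tris-HCl pH 7.4, 10 mM MgCl2, 1 mM EDTA; nonspecific binding with 10 μM prazosin. Filter-bound radioactivity counted; values are % inhibition of specific binding or estimated Ki.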

[2] = target: T2, Human adrenergic α2A receptor (Homo sapiens, UniProt P08913); test: Radioligand binding, adrenergic α2A (Protocol Group B); set-up: purchased Milipore (Millipore); settings: for Ki / Percentage inhibition of ligand binding, Adrenergic α2A (0.3 μM) / Percentage inhibition of ligand binding, Adrenergic α2A (0.1 μM) / inhibition at 0.1 µM / inhibition at 0.3 µM: Protocol Group B; for Ki: estimated Ki; for Percentage inhibition of ligand binding, Adrenergic α2A (0.3 μM) / inhibition at 0.3 µM: 0.3 μM compound; for Percentage inhibition of ligand binding, Adrenergic α2A (0.1 μM) / inhibition at 0.1 µM: 0.1 μM compound; for inhibition at 0.1 µM: read-out: Percentage inhibition of ligand binding, Adrenergic α2A (0.1 μM); for inhibition at 0.3 µM: read-out: Percentage inhibition of ligand binding, Adrenergic α2A (0.3 μM); for inhibition at 1 µM: 1 μM compound, read-out: Percentage inhibition of ligand binding, Adrenergic α2A, 1 μM; for inhibition at 3.2 µM: 3.2 μM compound, read-out: Percentage inhibition of ligand binding, Adrenergic α2A, 3.2 μM
T2 sequence (P08913 1-465): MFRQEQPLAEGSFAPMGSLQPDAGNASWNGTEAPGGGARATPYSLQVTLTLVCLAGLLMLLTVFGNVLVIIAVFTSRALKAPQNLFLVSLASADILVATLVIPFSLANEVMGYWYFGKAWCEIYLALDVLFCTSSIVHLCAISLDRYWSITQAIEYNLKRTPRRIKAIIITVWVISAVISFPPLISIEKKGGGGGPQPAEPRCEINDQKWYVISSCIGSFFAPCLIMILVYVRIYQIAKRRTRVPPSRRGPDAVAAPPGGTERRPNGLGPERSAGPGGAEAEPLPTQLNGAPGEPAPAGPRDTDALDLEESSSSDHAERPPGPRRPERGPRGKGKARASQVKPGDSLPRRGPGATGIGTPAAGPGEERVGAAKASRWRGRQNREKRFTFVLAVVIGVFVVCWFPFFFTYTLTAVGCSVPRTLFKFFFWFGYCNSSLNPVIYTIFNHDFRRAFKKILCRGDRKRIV
Summary of the method: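 Membranes from recombinant cells expressing the receptor, in 50 mM Tris-HCl pH 7.4 with 5 mM MgCl2, 1 mM CaCl2, 0.2% BSA; compounds incubated with 2 nM [^3H]MK-912 for 60 min at 25° C. Nonspecific binding defined by 10 μM rauwolscine; filtration, counting; percent inhibition of specific binding, or estimated Ki.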

[3] = target: T3, Human adrenergic α2B receptor (Homo sapiens, UniProt P18089); test: β-Arrestin GPCR functional assay, adrenergic α2B (Protocol B); assay type: cell-based; settings: for IC50: β-arrestin, antagonist vs nor-epinephrine EC80, read-out: IC50 Adrenergic α2B; for Percentage inhibition, Adrenergic α2B / inhibition at 0.03 µM / inhibition at 0.1 µM / inhibition at 0.01 µM: nor-epinephrine at EC80 (50 nM); for inhibition at 0.03 µM / inhibition at 0.1 µM / inhibition at 0.01 µM: read-out: Percentage inhibition, Adrenergic α2B
T3 sequence (P18089 1-450): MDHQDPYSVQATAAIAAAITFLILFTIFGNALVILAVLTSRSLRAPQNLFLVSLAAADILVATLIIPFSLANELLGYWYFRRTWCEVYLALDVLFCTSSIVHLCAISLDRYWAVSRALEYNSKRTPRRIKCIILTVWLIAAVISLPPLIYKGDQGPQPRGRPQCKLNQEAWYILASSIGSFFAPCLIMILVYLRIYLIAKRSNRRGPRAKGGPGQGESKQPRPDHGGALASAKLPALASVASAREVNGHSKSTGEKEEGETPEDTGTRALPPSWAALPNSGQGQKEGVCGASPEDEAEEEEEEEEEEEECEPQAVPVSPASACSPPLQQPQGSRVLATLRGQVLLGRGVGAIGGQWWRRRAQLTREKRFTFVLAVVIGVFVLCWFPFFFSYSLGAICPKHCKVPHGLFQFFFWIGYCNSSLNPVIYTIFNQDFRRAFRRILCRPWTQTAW
Summary of the method: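 CHO cells overexpressing human α2B (PathHunter β-arrestin), 12,000 per well, 24 h at 37° C; compounds in 1% DMSO 30 min, then 50 nM norepinephrine (EC80) 90 min at 37° C.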

[4] = 0.3 μM compound, Protocol Group B
[5] = 10 nM compound, concentration series, 0.01 µM
[6] = 0.032 μM compound, concentration series, 0.032 µM

| SMILES | Ki ([1]; Protocol Group B) [µM] | Ki [2] [µM] | IC50 [3] [µM] | Percentage inhibition, Adrenergic α2B ([3]; 10 nM compound) [%] | inhibition at 0.1 µM ([3]; 0.1 μM compound) [%] | Percentage inhibition, Adrenergic α2B ([3]; 30 nM compound) [%] | Percentage inhibition, Adrenergic α2B ([3]; 0.1 μM compound) [%] | inhibition at 0.1 µM ([1]; Protocol Group B) [%] | inhibition at 0.3 µM [1, 4] [%] | Percentage inhibition of ligand binding, Adrenergic α1B (0.1 μM) ([1]; Protocol Group B) [%] | Percentage inhibition of ligand binding, Adrenergic α2A (0.1 μM) [2] [%] | also measured |
| --- | --- | --- | --- | --- | --- | --- | --- | --- | --- | --- | --- | --- |
| Cc1ccc2c(c1)c1c(n2CC(OC(=O)N2CCCC2)c2ccncc2)CCN(C)C1 (single isomer, unassigned) [4b] | 0.269 | 0.126 | 0.163 |  |  |  |  |  |  |  |  |  |
| Cc1ccc2c(c1)c1c(n2CC(C)(O)c2ccc(F)nc2)CCN2CCCC12 (single isomer, unassigned) [6a] | 0.025 | 0.055 | 0.024 |  |  |  |  |  |  |  |  |  |
| Cc1ccc2c(c1)c1c(n2CC(C)(O)c2ccncc2)CCN2CCCC12 (single isomer, unassigned) [13b] | 0.035 | 0.013 | 0.012 | 4 |  | 30 | 102 |  |  |  |  |  |
| Cc1ccc2c(c1)c1c(n2CC(O)c2ccncc2F)CCN2CCCC12 (single isomer, unassigned) [14a] | 0.0182 | 0.305 | 0.124 |  |  | 9 | 41 | 70 | 87 |  |  | Percentage inhibition of ligand binding, Adrenergic α2A (0.3 μM) [2]: 39%; inhibition at 0.01 µM ([3]; 10 nM compound): 13% |
| OC(Cn1c2c(c3cc(F)ccc31)C1CCCN1CC2)c1ccncc1 (single isomer, unassigned) [18b] | 0.0658 | 0.0559 | 0.013 |  | 103 |  |  | 45 | 63 |  |  | inhibition at 0.0032 µM ([1]; concentration series): 14%; inhibition at 0.01 µM ([1]; 10 nM compound, concentration series, read-out: Percentage inhibition of ligand binding, Adrenergic α1B, 10 nM): 17%; inhibition at 0.03 µM ([1]; 0.03 μM compound, concentration series, read-out: Percentage inhibition of ligand binding, Adrenergic α1B, 0.03 μM): 14%; inhibition at 0.32 µM ([1]; concentration series): 74%; inhibition at 1 µM ([1]; concentration series): 87%; inhibition at 3.2 µM ([1]; 3.2 μM compound, concentration series, read-out: Percentage inhibition of ligand binding, Adrenergic α1B, 3.2 μM): 96%; inhibition at 10 µM ([1]; 10 μM compound, concentration series, read-out: Percentage inhibition of ligand binding, Adrenergic α1B, 10 μM): 99%; inhibition at 0.0032 µM ([2]; 3.2 nM compound, concentration series, read-out: Percentage inhibition of ligand binding, Adrenergic α2A, 3.2 nM): 8%; inhibition at 0.01 µM ([2]; 10 nM compound, concentration series, read-out: Percentage inhibition of ligand binding, Adrenergic α2A, 10 nM): 12%; inhibition at 0.03 µM ([2]; 0.03 μM compound, concentration series, read-out: Percentage inhibition of ligand binding, Adrenergic α2A, 0.03 μM): 27%; inhibition at 0.1 µM [2]: 45%; inhibition at 0.3 µM [2]: 71%; inhibition at 0.32 µM ([2]; 0.32 μM compound, concentration series, read-out: Percentage inhibition of ligand binding, Adrenergic α2A, 0.32 μM): 76%; inhibition at 1 µM ([2]; concentration series): 90%; inhibition at 3.2 µM ([2]; concentration series): 96%; inhibition at 10 µM ([2]; 10 μM compound, concentration series, read-out: Percentage inhibition of ligand binding, Adrenergic α2A, 10 μM): 99%; inhibition at 0.01 µM ([3]; 10 nM compound): 37%; inhibition at 0.03 µM ([3]; 30 nM compound): 94% |
| Cc1ccc2c(c1)c1c(n2CC(O)c2ccncc2)CCN2CCCC12 (single isomer, unassigned) [Compound No. 178d] |  |  |  |  |  |  |  | 94 |  | 99 | 96 | inhibition at 0.1 µM [2]: 90% |

Further compounds by falling Ki ([1]; Protocol Group B), results first:

| Ki ([1]; Protocol Group B) [µM] | Ki [2] [µM] | IC50 [3] [µM] | Percentage inhibition, Adrenergic α2B ([3]; 10 nM compound) [%] | inhibition at 0.1 µM ([3]; 0.1 μM compound) [%] | Percentage inhibition, Adrenergic α2B ([3]; 30 nM compound) [%] | Percentage inhibition, Adrenergic α2B ([3]; 0.1 μM compound) [%] | inhibition at 0.1 µM ([1]; Protocol Group B) [%] | inhibition at 0.3 µM [1, 4] [%] | Percentage inhibition of ligand binding, Adrenergic α1B (0.1 μM) ([1]; Protocol Group B) [%] | Percentage inhibition of ligand binding, Adrenergic α2A (0.1 μM) [2] [%] | SMILES | also measured |
| --- | --- | --- | --- | --- | --- | --- | --- | --- | --- | --- | --- | --- |
| 0.01 | 0.05 | 0.03 | 9 | 88 |  |  |  |  |  |  | Cc1ccc2c(c1)c1c(n2CC(C)(O)c2ccncc2)CCN2CCCC12 (single isomer, unassigned) [13a] | inhibition at 0.03 µM ([3]; 30 nM compound): 29% |
| 0.0075 | 0.0162 | 0.018 | 33 | 101 | 71 |  |  | 93 | 82 | 72 | Cc1cc(C)c2c(c1)c1c(n2CC(C)(O)c2ccncc2)CCN2CCCC12 (single isomer, unassigned) [19a] | inhibition at 0.00032 µM ([1]; 0.32 nM compound, concentration series, read-out: Percentage inhibition of ligand binding, Adrenergic α1B, 0.32 nM): 13%; inhibition at 0.001 µM ([1]; 1 nM compound, concentration series, read-out: Percentage inhibition of ligand binding, Adrenergic α1B, 1 nM): 2%; inhibition at 0.0032 µM ([1]; concentration series): 7%; Percentage inhibition of ligand binding, Adrenergic α1B, 10 nM [1, 5]: 24%; Percentage inhibition of ligand binding, Adrenergic α1B, 0.032 μM [1, 6]: 61%; inhibition at 0.32 µM ([1]; concentration series): 96%; inhibition at 1 µM ([1]; concentration series): 95%; inhibition at 0.001 µM ([2]; 1 nM compound, concentration series, read-out: Percentage inhibition of ligand binding, Adrenergic α2A, 1 nM): 3%; Percentage inhibition of ligand binding, Adrenergic α2A, 3.2 nM ([2]; 3.2 nM compound, concentration series, 0.0032 µM): 0%; Percentage inhibition of ligand binding, Adrenergic α2A, 10 nM [2, 5]: 22%; Percentage inhibition of ligand binding, Adrenergic α2A, 0.032 μM [2, 6]: 49%; inhibition at 0.3 µM [2]: 87%; Percentage inhibition of ligand binding, Adrenergic α2A, 0.32 μM ([2]; 0.32 μM compound, concentration series, 0.32 µM): 92%; inhibition at 1 µM ([2]; concentration series): 98%; inhibition at 3.2 µM ([2]; concentration series): 100% |
| 0.0045 | 0.0068 | 0.014 | 11 |  | 93 | 97 |  |  | 85 | 80 | Cc1ccc2c(c1)c1c(n2CC(O)c2ccncc2F)CCN2CCCC12 (single isomer, unassigned) [14b] | Percentage inhibition of ligand binding, Adrenergic α1B (0.3 μM) ([1]; 0.3 μM compound, Protocol Group B, 0.3 µM): 95%; Percentage inhibition of ligand binding, Adrenergic α2A (0.3 μM) [2]: 89% |
